Molecules are shown by their SMILES. Like-named read-outs stand apart in the source and are kept apart here.

A word on the inhibition: it is the relative decrease from the control value, in per cent.

One test relates to rank growth cotton. The experiment in a line: Defoliation of cotton (rank growth) (Example X, Table G). The format is in vivo. To be noted: Rate 2.0 Pounds per Acre. As to the method:
(§1) Solutions of the test compounds and compositions identified in Table F were prepared by dissolving the compounds in acetone/water (50:50 volume/volume) containing 0.1 percent volume/volume of Surfel® spray adjuvant commercially available from Union Carbide Corporation, Danbury, Connecticut. As detailed below, these solutions of test compounds and compositions were applied to cotton plants at a concentration of 0.5 pounds of each active ingredient per acre (0,6 kg/ha) or 2.0 pounds of active ingredient per acre (2,2 kg/ha). The compositions were applied to cotton as mixtures.
(§2) The above solutions were applied to cotton plants growing under field conditions at a spray volume equivalent to 100 gallons per acre 935 l/ha) by use of a carbon dioxide backpack sprayer set at about 30 psig air pressure (2 bar). The application timing coincided with a cotton maturity phase equivalent to about 40 percent open bolls. As a control, a water-acetone solution containing no test compound or composition was also sprayed on the cotton plants. At four days after treatment, percent defoliation of the cotton plants was determined by visual observation. At 14 days after treatment, percent boll opening was determined by visual observation of the number of open bolls/total number of bolls. The percent defoliation and percent boll opening values obtained for the control and each of the test compounds and compositions are reported in Table F as the average of three replications. TABLE F
In a manner similar to the procedure described in Example IX , the defoliation effect on rank growth cotton was determined for representative synergistic compositions at various rates of application. […] TABLE G

For test [1], the system named is snapbean plants. The experiment in a line: Combination/sequential applications, defoliation of snapbean plants (Example VIII, Table E). In kind it is in vivo, Phaseolus vulgaris var. Cranberry. As to conditions: Rate 0.5 Pounds per Acre, applied alone. As to the method: (§3) Solutions of the test compounds and compositions identified in Table C below were prepared by dissolving the compounds in acetone/water (50:50 volume/volume) containing 0.1 percent volume/volume of Triton X-100 surfactant commercially available from Rhom and Haas Company, Philadelphia, Pennsylvania. As detailed below, these solutions of the test compounds and compositions were applied to snapbean plants at a concentration of 0.25 pounds of each active ingredient per acre (0.28 kg/ha) or 0.50 pounds of each active ingredient per acre (0.56 kg/ha). The compositions were applied to the snapbean plants as a mixture. Ethephon is commercially available from Union Carbide Agricultural Products Company, Inc., Research Triangle Park, North Carolina.
Into 13.5 centimeter diameter plastic pots containing a potting soil mix, i.e., one-third sandy loam soil, one-third peat moss and one-third perlite by volume, were sown three snapbean seeds (Phaseolus vulgaris var. Cranberry). Five to seven days after planting, the plants were thinned to one plant per pot. […] At 96 hours after treatment, percent defoliation of the snapbean plants was determined by visual observation. […]
In a manner similar to the procedure described in Example VI , the defoliation effect on snapbean plants was determined for representative synergistic compositions using both combination (tank mix) and sequential application methods. […]

Test [2] relates to snapbean plants. The experiment in a line: Defoliation of snapbean plants, foliar spray (Example VI, Table C). In kind it is in vivo, Phaseolus vulgaris var. Cranberry. As to conditions: Phaseolus vulgaris, read-out: Percent Defoliation. How it is done:
as §3
(§4) Into 13.5 centimeter diameter plastic pots containing a potting soil mix, i.e., one-third sandy loam soil, one-third peat moss and one-third perlite by volume, were sown three snapbean seeds (Phaseolus vulgaris var. Cranberry). Five to seven days after planting, the plants were thinned to one plant per pot. Ten to fourteen days after planting at the time of full expansion of the primary leaves, each concentration of the test compounds and compositions identified in […] (each pot sprayed with a volume equivalent to 180 gallons per acre) - i.e. 1683 l/ha was applied to three snapbean plants as a foliar spray by use of an aspirated spray apparatus set at 10 psig air pressure (517 mmHg). As a control, a water-acetone solution containing no test compound or composition was also sprayed on three snapbean plants. When dry, all or the plants were placed in a greenhouse at a temperature of 80°F ± 5°F (27°C ± 3°C) and humidity of 50 percent ± 5 percent. At 96 hours after treatment, percent defoliation of the snapbean plants was determined by visual observation. The values obtained For the control and each test compound and composition were averaged to obtain the results in Table C.

Another test concerns cotton plants. The experiment in a line: Defoliation and boll opening of cotton under field conditions (Example IX, Table F). The format is in vivo. The arrangement: key to Percent Boil Opening: *: Percent boll opening essentially the same as the control as determined by visual observation. As to conditions: Rate 2.0 Pounds per Acre; for Percent Boil Opening: 14 days after treatment, control 41; for Percent Defoliation: field conditions, four days after treatment. How it is done: as §1, §2

The subject of test [3] is cotton. The experiment in a line: Sequential applications, defoliation of cotton (Example XI, Table H). As to conditions: alone. The format is in vivo. How it is done:
In a manner similar to the procedure described in Example VI , the defoliation effect on snapbean plants was determined for representative synergistic compositions using both combination (tank mix) and sequential application methods. In the sequential application method, the second compound was applied 78 hours after the first compound. TABLE E
In a manner similar to the procedure described in Example VIII , the defoliation effect on cotton was determined for representative synergistic compositions using sequential application. Ethephon applications were made 7 days after application of the particular malonic acid derivative compound. TABLE H

The subject of test [4] is cotton. The experiment in a line: Defoliation of cotton at various rates (Example XII, Table I). The format is in vivo. To be noted: Rate 0.5 Pounds per Acre, alone. As to the method:
as §1, §2
In a manner similar to the procedure described in Example IX , the defoliation effect on cotton was determined for representative synergistic compositions at various rates of application.

For another test, the system named is mature tobacco plants. The experiment in a line: Leaf ripening (chlorosis) of tobacco (Example XV, Table L). In kind it is in vivo. To be noted: Rate 1.0 Pounds per Acre, alone; upper three leaves; 7 days after treatment; control 10. As to the method: as §3, with “Ethephon is commercially available from Union Carbide Agricultural Products Company, Inc., Research Triangle Park, North Carolina.” left out
Into 13.5 centimeter diameter plastic pots containing a potting soil mix, i.e., one-third sandy loam soil, one-third peat moss and one-third perlite by volume, were sown three snapbean seeds (Phaseolus vulgaris var. Cranberry). […] At 96 hours after treatment, percent defoliation of the snapbean plants was determined by visual observation. […]
In a manner similar to the procedure described in Example VI except that mature tobacco plants were used in place of snapbean plants, the leaf ripening effect of tobacco was determined for representative synergistic compositions at various rates of application. […] Percent tobacco leaf ripening (chlorosis) was determined by visual observation of the upper three leaves of the tobacco plant at 7 days after treatment. […]

The test system of the next test is cotton plant. The experiment in a line: Regrowth of cotton following defoliation, DEF treated plant as standard (Example XIV, Table K). In kind it is in vivo. How it is done: as §1, §2
In a manner similar to the procedure described in Example IX , the effect of cotton regrowth after defoliation was determined for representative synergistic compositions at various rates of application. The percent regrowth inhibition and stimulation in Table R below were determined by visual observation based on the percent of a cotton plant having regrowth using a DEF treated cotton plant as the standard. DEF is commercially available from Mobay Chemical Corporation, Kansas City, Missouri. The average regrowth of a cotton plant treated with DEF was 43 percent. As used in Table R, percent regrowth inhibition resulted from a cotton plant having a regrowth percentage less than 43 percent (DEF standard), and percent regrowth stimulation resulted from a cotton plant having a regrowth percentage greater than 43 percent. The percent regrowth inhibition and stimulation were determined 30 days after treatment.

Test [5] deals with snapbean plants. The experiment in a line: Defoliation of snapbean plants at various rates, 72 hours (Example VII, Table D). The format is in vivo, Phaseolus vulgaris var. Cranberry. To be noted: 72 hours after treatment. As to the method: as §3, §4
In a manner similar to the procedure described in Example VI, the defoliation effect on snapbean plants was determined for representative synergistic compositions at various rates of application except that percent defoliation of the snapbean plants was determined at 72 hours after treatment. TABLE D

In test [6] the test system is snapbean plants. The experiment in a line: Defoliation of snapbean plants with various ethylene releasing agents (Example XVI, Table M). The format is in vivo, Phaseolus vulgaris var. Cranberry. As to the method: as §3, §4
In a manner similar to the procedure described in Example VI , the defoliation effect on snapbean plants was determined for representative synergistic compositions at various rates of application using various ethylene releasing agents identified in Table M below. The ethylene releasing agents used in […] are known materials which can be prepared by conventional methods.

In test [7] the test system is cotton. The experiment in a line: Defoliation of cotton at various rates (Example XIII, Table J). In kind it is in vivo. As to conditions: Rate 0.5 Pounds per Acre, alone. How it is done: as §1, §2
In a manner similar to the procedure described in Example IX , the defoliation effect on cotton was determined for representative synergistic compositions at various rates of application. TABLE J

Setting [8] is: regrowth relative to DEF standard (43 percent), Rate 0.5 Pounds per Acre, 30 days after treatment.
[9] abbreviates: Gossypium hirsutum, 720 h, read-out: Percent Inhibition.

Take `CCOC(=O)C1(C(=O)Nc2ccc(Br)cc2C)CC1` [Compound 96]: the “Percent Defoliation” value in the test on rank growth cotton, in the test with snapbean plants [1], in the test on cotton plants, in the test on cotton [3] (Rate 0.5 Pounds per Acre), with cotton [3] (Rate 1.0 Pounds per Acre) and in the test on cotton [4] was 0% in each case. The “Percent Defoliation” value with snapbean plants [5] (Rate 0.25 Pounds per Acre) and with snapbean plants [5] (Rate 0.50 Pounds per Acre) was 0% in each case. Besides, the pest or weed control at 280.212 g/ha in the test on snapbean plants [2] (Rate 0.25 Pounds per Acre, foliar spray, 96 hours after treatment) is 0%. The pest or weed control at 560.425 g/ha in the test with snapbean plants [2] (Rate 0.50 Pounds per Acre, foliar spray, 96 hours after treatment) was determined as 0%. Besides, the “Percent Boil Opening” value with cotton plants (result given by footnote symbol) was “*”. Besides, the “Percent Ripening (Chlorosis)” value with mature tobacco plants was 10%. Moreover, the inhibition at 560.425 g/ha in the test on cotton plant (Gossypium hirsutum, 720 h, regrowth relative to DEF standard (43 percent), Rate 0.5 Pounds per Acre, 30 days after treatment, read-out: Percent Inhibition) was 0%. The “Percent Stimulation” value with cotton plant (setting [8]) was determined as 0%.
With `O=P(O)(O)CCCl` [Ethephon, 2-chloroethylphosphonic acid, reference compound], the “Percent Defoliation” value in the test with rank growth cotton turned out to be 12%; with snapbean plants [1] it was 0%; in the test with snapbean plants [6] (Rate 0.125 Pounds per Acre) it was 0%; in the test on snapbean plants [6] (Rate 0.25 Pounds per Acre), 0%; in the test with snapbean plants [6] (Rate 0.50 Pounds per Acre), 0%; in the test on cotton plants it was 5%. Moreover, the “Percent Defoliation” value came out at 5% in the test with cotton [7]; 3% with cotton [3] (Rate 0.25 Pounds per Acre); 13% with cotton [4]; 0% in the test on snapbean plants [5] (Rate 0.25 Pounds per Acre); 0% in the test on snapbean plants [5] (Rate 0.50 Pounds per Acre). Moreover, the pest or weed control at 280.212 g/ha in the test on snapbean plants [2] (foliar, 96 h) came to 0%. The pest or weed control at 560.425 g/ha in the test with snapbean plants [2] (foliar, 96 h) is 21%. Further, the “Percent Boil Opening” value in the test with cotton plants was 64%. Moreover, in the test with mature tobacco plants, the “Percent Ripening (Chlorosis)” value is reported as 10%. The inhibition at 560.425 g/ha in the test with cotton plant (setting [9]) turned out to be 0%. Also, in the test on cotton plant (setting [9]), the inhibition at 1120.85 g/ha came out at 0%. Moreover, the inhibition at 2241.7 g/ha with cotton plant (setting [9]) stood at 0%. The “Percent Stimulation” value in the test on cotton plant (setting [8]) is reported as 16%; in the test on cotton plant (regrowth relative to DEF standard (43 percent), Rate 1.0 Pounds per Acre, 30 days after treatment) it was 70%; in the test on cotton plant (regrowth relative to DEF standard (43 percent), Rate 2.0 Pounds per Acre, 30 days after treatment), 62%.

The record behind these values is patent EP0262209B1, “SYNERGISTIC PLANT GROWTH REGULATOR COMPOSITIONS” (RHONE POULENC NEDERLAND B.V., priority 1986, dated 1987).
